Activity calls are given as the source filed them. The calls are words filed in the database; no cut-off is given here.
Assays:
[1] = test system: THP-1; experiment: Antiinflammatory activity in human THP1 cells assessed as reduction in LPS-induced TNFalpha mRNA level at 1 uM incubated for 1 hr followed by LPS challenge and measured after 4 to 6 hrs by q-PCR method; type: functional, cell-based
[2] = test system: Mus musculus; experiment: Anti-colitis activity against DSS-induced C57BL/6 mouse model of chronic relapsing colitis assessed as reduction in stool consistency score at 0.15 mg/kg, po administered once daily for 30 days starting from day 13 post DSS-challenge cotreated with 20 mg/kg berberine measured on day 24; type: functional, organism-based
[3] = test system: Mus musculus; experiment: Antiinflammatory activity against DSS-induced C57BL/6 mouse model of subchronic relapsing colitis assessed as reduction in S1PR1 mRNA level at 0.3 mg/kg, po administered once daily for 14 days starting from day 5 post DSS-challenge by RT-qPCR analysis; type: functional, organism-based
[4] = test system: Mus musculus; experiment: Anti-colitis activity against DSS-induced C57BL/6 mouse model of chronic relapsing colitis assessed as reduction in disease activity index at 0.3 mg/kg, po administered once daily for 30 days starting from day 13 post DSS-challenge and measured on day 43; type: functional, organism-based
[5] = test system: Mus musculus; experiment: Anti-colitis activity against DSS-induced C57BL/6 mouse model of chronic relapsing colitis assessed as reduction in DSS-induced inflammatory cell infiltration in colon at 0.3 mg/kg, po administered once daily for 30 days starting from day 13 post DSS-challenge by hematoxylin and eosin staining based light microscopic analysis; type: functional, organism-based
[6] = test system: THP-1; experiment: Antiinflammatory activity in human THP1 cells assessed as reduction in LPS-induced IL6 mRNA level at 1 uM incubated for 1 hr followed by LPS challenge and measured after 4 to 6 hrs by q-PCR method; type: functional, cell-based
[7] = test system: Mus musculus; experiment: Antiinflammatory activity against DSS-induced C57BL/6 mouse model of subchronic relapsing colitis assessed as reduction in IL17 mRNA level at 0.3 mg/kg, po administered once daily for 14 days starting from day 5 post DSS-challenge by RT-qPCR analysis; type: functional, organism-based
[8] = test system: Mus musculus; experiment: (§1) Anti-colitis activity against DSS-induced C57BL/6 mouse model of subchronic relapsing colitis assessed as reduction in colon swelling at 0.15 mg/kg, po administered once daily for 14 days starting from day 5 post DSS-challenge cotreated with 20 mg/kg berberine and measured after day 12 to day 18; type: functional, organism-based
[9] = test system: Mus musculus; experiment: Effect on total STAT3 expression in DSS-induced C57BL/6 mouse model of subchronic relapsing colitis at 0.15 mg/kg, po administered once daily for 14 days starting from day 5 post DSS-challenge cotreated with 20 mg/kg berberine by Western blot analysis; type: ADME, organism-based; settings: in vivo, 336 h
[10] = test system: Mus musculus; experiment: Anti-colitis activity against DSS-induced C57BL/6 mouse model of chronic relapsing colitis assessed as reduction in disease activity index at 0.3 mg/kg, po administered once daily for 30 days starting from day 13 post DSS-challenge and measured on day 24; type: functional, organism-based
[11] = test system: Mus musculus; experiment: Antiinflammatory activity against DSS-induced C57BL/6 mouse model of subchronic relapsing colitis assessed as reduction in S1PR1 mRNA level at 0.15 mg/kg, po administered once daily for 14 days starting from day 5 post DSS-challenge cotreated with 20 mg/kg berberine by RT-qPCR analysis; type: functional, organism-based
[12] = test system: Mus musculus; experiment: Anti-colitis activity against DSS-induced C57BL/6 mouse model of subchronic relapsing colitis assessed as reduction in stool bleeding scores at 0.3 mg/kg, po administered once daily for 14 days starting from day 5 post DSS challenge and measured on day 19; type: functional, organism-based
[13] = target: Signal transducer and activator of transcription 3 (Homo sapiens) (UniProt P40763); experiment: Inhibition of STAT3 activation in human THP1 cells assessed as reduction in LPS-induced phosphorylated STAT3 expression at 0.5 uM cotreated with 0.5 uM berberine incubated for 1 hr followed by LPS challenge and measured after 4 to 6 hrs by Western blot analysis; type: cell-based; settings: THP-1
[14] = Toxicity in DSS-induced C57BL/6 mouse model of chronic relapsing colitis assessed as induction of abnormalities in liver at 0.15 mg/kg, po administered once daily for 30 days starting from day 13 post DSS-challenge cotreated with 20 mg/kg berberine by hematoxylin and eosin staining based light microscopic analysis; type: organism-based; settings: in vivo, 720 h
[15] = test system: Mus musculus; experiment: Anti-colitis activity against DSS-induced C57BL/6 mouse model of chronic relapsing colitis assessed as reduction in DSS-induced multiple erosive lesions in colon at 0.3 mg/kg, po administered once daily for 30 days starting from day 13 post DSS-challenge; type: functional, organism-based
[16] = test system: Mus musculus; experiment: as §1, with “stool consistency score” for “colon swelling”; type: functional, organism-based
[17] = test system: Mus musculus; experiment: Anti-colitis activity against DSS-induced C57BL/6 mouse model of subchronic relapsing colitis assessed as reversal of DSS-induced colon shortening at 0.15 mg/kg, po administered once daily for 30 days starting from day 13 post DSS-challenge cotreated with 20 mg/kg berberine; type: functional, organism-based
[18] = test system: Mus musculus; experiment: Anti-colitis activity against DSS-induced C57BL/6 mouse model of subchronic relapsing colitis assessed as reduction in disease activity index at 0.15 mg/kg, po administered once daily for 14 days starting from day 5 post DSS-challenge cotreated with 20 mg/kg berberine measured after day 12 to day 18; type: functional, organism-based
[19] = test system: Mus musculus; experiment: Anti-colitis activity against DSS-induced C57BL/6 mouse model of subchronic relapsing colitis assessed as reduction in colon swelling at 0.3 mg/kg, po administered once daily for 14 days starting from day 5 post DSS-challenge; type: functional, organism-based
[20] = test system: THP-1; experiment: Antiinflammatory activity in human THP1 cells assessed as reduction in LPS-induced TNFalpha mRNA level at 0.5 uM cotreated with 0.5 uM berberine incubated for 1 hr followed by LPS challenge and measured after 4 to 6 hrs by q-PCR method; type: functional, cell-based
[21] = test system: Mus musculus; experiment: Anti-colitis activity against DSS-induced C57BL/6 mouse model of chronic relapsing colitis assessed as reduction in DSS-induced spleen swelling at 0.3 mg/kg, po administered once daily for 30 days starting from day 13 post DSS-challenge; type: functional, organism-based
[22] = test system: Mus musculus; experiment: Anti-colitis activity against DSS-induced C57BL/6 mouse model of chronic relapsing colitis assessed as reversal of DSS-induced colon shortening at 0.3 mg/kg, po administered once daily for 30 days starting from day 13 post DSS-challenge; type: functional, organism-based
[23] = test system: Mus musculus; experiment: Anti-colitis activity against DSS-induced C57BL/6 mouse model of chronic relapsing colitis assessed as reduction in stool bleeding at 0.3 mg/kg, po administered once daily for 30 days starting from day 13 post DSS-challenge measured on day 38; type: functional, organism-based
[24] = test system: Mus musculus; experiment: Anti-colitis activity against DSS-induced C57BL/6 mouse model of chronic relapsing colitis assessed as reduction in DSS-induced spleen swelling at 0.15 mg/kg, po administered once daily for 30 days starting from day 13 post DSS-challenge cotreated with 20 mg/kg berberine; type: functional, organism-based
[25] = test system: Mus musculus; experiment: Effect on total STAT3 expression in DSS-induced C57BL/6 mouse model of subchronic relapsing colitis at 0.3 mg/kg, po administered once daily for 14 days starting from day 5 post DSS-challenge by Western blot analysis; type: ADME, organism-based; settings: in vivo, 336 h
[26] = test system: Mus musculus; experiment: as §1, with “reduction in DSS-induced colon shortening” for “reduction in colon swelling”, “DSS-induced colon shortening at 0.15” for “in colon swelling at 0.15”; type: functional, organism-based
[27] = test system: Mus musculus; experiment: Antiinflammatory activity against DSS-induced C57BL/6 mouse model of subchronic relapsing colitis assessed as reduction in TNFalpha mRNA level at 0.15 mg/kg, po administered once daily for 14 days starting from day 5 post DSS-challenge cotreated with 20 mg/kg berberine by RT-qPCR analysis; type: functional, organism-based

Signal transducer and activator of transcription 3 (Homo sapiens), sequence (P40763 whole entry): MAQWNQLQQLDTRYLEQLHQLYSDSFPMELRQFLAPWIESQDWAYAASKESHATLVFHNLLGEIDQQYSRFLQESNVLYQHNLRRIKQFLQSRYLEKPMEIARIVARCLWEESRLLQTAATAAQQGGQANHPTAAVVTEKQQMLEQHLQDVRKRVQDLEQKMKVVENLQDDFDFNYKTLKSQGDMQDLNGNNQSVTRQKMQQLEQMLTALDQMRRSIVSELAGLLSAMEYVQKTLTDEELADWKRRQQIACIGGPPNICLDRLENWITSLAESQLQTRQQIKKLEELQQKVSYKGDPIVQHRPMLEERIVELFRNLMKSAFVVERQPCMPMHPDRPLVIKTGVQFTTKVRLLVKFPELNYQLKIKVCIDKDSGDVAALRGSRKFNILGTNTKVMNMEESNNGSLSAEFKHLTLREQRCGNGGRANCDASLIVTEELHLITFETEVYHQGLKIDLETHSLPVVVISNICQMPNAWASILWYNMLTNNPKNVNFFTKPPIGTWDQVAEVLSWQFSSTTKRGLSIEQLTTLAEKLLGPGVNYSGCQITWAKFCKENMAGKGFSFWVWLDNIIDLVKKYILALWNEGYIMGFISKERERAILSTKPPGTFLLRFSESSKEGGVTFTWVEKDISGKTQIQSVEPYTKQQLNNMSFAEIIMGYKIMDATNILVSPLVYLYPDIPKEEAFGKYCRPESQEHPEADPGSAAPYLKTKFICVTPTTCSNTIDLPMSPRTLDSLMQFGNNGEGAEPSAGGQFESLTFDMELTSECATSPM

For CCCCCCCCc1ccc(CCC(N)(CO)CO)cc1.Cl [FINGOLIMOD HYDROCHLORIDE], the Activity [1] was “Active”, the Activity [2] was “Active” and the Activity [3] was “Active”. The Activity [4] was “Active”, the Activity [5] was “Active” and the Activity [6] was “Active”. The Activity [7] was “Active”, the Activity [8] was “inactive” and the Activity [9] was “Non-Toxic”. The Activity [10] was “Active”, the Activity [11] was “Active” and the Activity [12] was “Active”. The inhibition [13] was “Active”, the Activity [14] was “Non-Toxic” and the Activity [15] was “Active”. The Activity [16] was “Active”, the Activity [17] was “Active” and the Activity [18] was “Active”. The Activity [19] was “inactive”, the Activity [20] was “Active” and the Activity [21] was “Active”. For the same compound, the Activity [22] was “Active”, the Activity [23] was “Active” and the Activity [24] was “Active”. The Activity [25] was “Non-Toxic”, the Activity [26] was “Active” and the Activity [27] was “Active”.

Reference: ChEMBL document CHEMBL4619760, “Anti-inflammatory Efficacy of Combined Natural Alkaloid Berberine and S1PR Modulator Fingolimod at Low Doses in Ulcerative Colitis Preclinical Models” (J Nat Prod, 2020)
